Here are results for 25 compounds from ChEMBL document CHEMBL5385946, “Discovery of Dehydroabietylamine Derivatives as Antibacterial and Antifungal Agents” (J Nat Prod, 2024).

Values after ≈ are worked out from the molar mass of the structure shown.

Usually inhibition stands for the share of the control response that was lost under treatment. High values mean strong suppression, low ones little suppression. In general, MIC refers to the lowest concentration that inhibits growth of the organism. As usually defined, the EC50 is the concentration giving half of the maximal effect. Low readings indicate a more potent agent, high ones a less potent agent.

In one assay the test system is Alternaria solani. The assay can be described thus: Antifungal activity against Alternaria solani at 50 ug/ml. The class given is functional.
The test system of a further assay is Botrytis cinerea. The assay is described as follows: Antifungal activity against Botrytis cinerea at 50 ug/ml. The class given is functional.
A further assay deals with Escherichia coli. The assay is described as follows: Antibacterial activity against Escherichia coli CMCC(B)44102 by agar dilution method. The class given is functional. On the technique in general: Agar dilution tests growth on a series of plates holding different concentrations.
The test system of another assay is Fusarium graminearum. The assay is described as follows: Antifungal activity against Gibberella zeae at 50 ug/ml. The class given is functional.
Assay [1] has as its system Rhizoctonia solani. The assay is described as follows: Antifungal activity against Rhizoctonia solani at 50 ug/ml. It counts as functional.
For a further assay, the system named is Staphylococcus aureus. The assay is described as follows: Antibacterial activity against Staphylococcus aureus CMCC(B)26003 by agar dilution method. It counts as functional.
In assay [2] the target is DNA topoisomerase II (Homo sapiens) (UniProt P11388+Q02880). The assay can be described thus: Inhibition of DNA topoisomerase II (unknown origin). It counts as protein assay.
For assay [3], the system named is Rhizoctonia solani. The assay is described as follows: Antifungal activity against Rhizoctonia solani. The class given is functional, organism-based.
The test system of assay [4] is Rhizoctonia solani. The assay can be described thus: Antifungal activity against Rhizoctonia solani assessed as protective effect at 400 ug/ml. It counts as functional. The conditions noted are these: dose 400 µg/ml.

Consider `COc1cccc(C[C@@]2(CNC(=O)c3ccccn3)CCC[C@]3(C)c4ccc(C(C)C)cc4CC[C@@H]23)c1`, for which the inhibition at 50 µg/mL with Alternaria solani came to 0%; with Botrytis cinerea, 3.7%; in the assay with Fusarium graminearum, 0%; with Rhizoctonia solani [1], 5.2%. The MIC is 8 µg/mL (≈ 16.1 µM) with Escherichia coli and 16 µg/mL (≈ 32.2 µM) with Staphylococcus aureus.

As to `CC(C)c1ccc2c(c1)CC[C@H]1[C@@](CNC(=O)c3ccccn3)(Cc3ccc(C(F)(F)F)cc3)CCC[C@]21C`, the inhibition at 50 µg/mL in the assay on Alternaria solani was 1.7%; with Botrytis cinerea, 1.1%; with Fusarium graminearum, 0%; in the assay on Rhizoctonia solani [1], 16.3%. For the same compound, the MIC against Escherichia coli and with Staphylococcus aureus was 64 µg/mL (≈ 120 µM) in each case.

Take `CC(C)c1ccc2c(c1)CC[C@H]1[C@@](CN)(Cc3ccc(C(F)(F)F)cc3)CCC[C@]21C`: the inhibition at 50 µg/mL in the assay on Alternaria solani came out at 11.6%; in the assay on Botrytis cinerea, 36.2%; in the assay with Fusarium graminearum it was 25.5%; with Rhizoctonia solani [1] it was 38.6%. In addition, the MIC against Escherichia coli was 16 µg/mL (≈ 37.2 µM); with Staphylococcus aureus, above 128 µg/mL.

As for `CC(C)c1ccc2c(c1)CC[C@H]1[C@@](CNC(=O)c3ccccn3)(Cc3ccc(Br)cc3)CCC[C@]21C`, the inhibition at 50 µg/mL was determined as 1.1% in the assay on Alternaria solani, 20.1% in the assay on Botrytis cinerea, 0% in the assay on Fusarium graminearum and 25.2% in the assay with Rhizoctonia solani [1]. Besides, the MIC in the assay with Escherichia coli was determined as 4 µg/mL (≈ 7.33 µM); in the assay on Staphylococcus aureus it was 32 µg/mL (≈ 58.7 µM).

Regarding `O=C(O)c1cn(C2CC2)c2cc(N3CCNCC3)c(F)cc2c1=O` [CIPROFLOXACIN], the INH in assay [2] turned out to be 1.11 ng/mL. The same compound displayed an MIC with Staphylococcus aureus above 128 µg/mL.

Regarding `CC(C)c1ccc2c(c1)CC[C@H]1[C@@](CNC(=O)c3ccccn3)(Cc3ccccc3)CCC[C@]21C`, the inhibition at 50 µg/mL in the assay with Alternaria solani amounted to 2.5%; with Botrytis cinerea, 12.4%; in the assay with Fusarium graminearum, 3.8%; in the assay on Rhizoctonia solani [1], 1.9%. The minimum inhibitory concentration (MIC) with Escherichia coli is 32 µg/mL (≈ 68.6 µM); in the assay on Staphylococcus aureus it was above 128 µg/mL.

For `CC(C)c1ccc2c(c1)CC[C@H]1[C@@](CNC(=O)c3ccccn3)(Cc3ccc(C#N)cc3)CCC[C@]21C`, the inhibition at 50 µg/mL is 5.5% in the assay with Alternaria solani, 30.6% in the assay with Botrytis cinerea, 0% with Fusarium graminearum and 28.5% with Rhizoctonia solani [1]. Moreover, the MIC against Escherichia coli is 64 µg/mL (≈ 130 µM); in the assay with Staphylococcus aureus, above 128 µg/mL.

Turning to `CC(C)c1ccc2c(c1)CC[C@H]1[C@@](CNC(=O)c3ccccn3)(Cc3ccc(N)cc3)CCC[C@]21C`, the inhibition at 50 µg/mL in the assay on Alternaria solani stood at 4%; in the assay with Botrytis cinerea it was 5.6%; in the assay on Fusarium graminearum it was 3.5%; in the assay on Rhizoctonia solani [1] it was 28.5%. The MIC in the assay with Escherichia coli and in the assay with Staphylococcus aureus was 32 µg/mL (≈ 66.4 µM) each time.

With `CCOC(=O)c1ccc(C[C@@]2(CNC(=O)c3ccccn3)CCC[C@]3(C)c4ccc(C(C)C)cc4CC[C@@H]23)cc1`, the inhibition at 50 µg/mL in the assay on Alternaria solani was determined as 1.2%; with Botrytis cinerea, 0%; in the assay with Fusarium graminearum it was 14.1%; in the assay on Rhizoctonia solani [1], 0%. Further, the MIC against Escherichia coli was 32 µg/mL (≈ 59.4 µM); against Staphylococcus aureus, above 128 µg/mL.

As for `Cc1ccc(C[C@@]2(CNC(=O)c3ccccn3)CCC[C@]3(C)c4ccc(C(C)C)cc4CC[C@@H]23)cc1C`, the inhibition at 50 µg/mL with Alternaria solani stood at 4.1%; in the assay on Botrytis cinerea, 15.2%; with Fusarium graminearum it was 0%; in the assay on Rhizoctonia solani [1], 7.4%. Besides, the MIC with Escherichia coli was 64 µg/mL (≈ 129 µM); against Staphylococcus aureus it was above 128 µg/mL.

As for `CC(C)c1ccc2c(c1)CC[C@H]1[C@@](CNC(=O)c3ccccn3)(Cc3ccc(OC(F)(F)F)cc3)CCC[C@]21C`, the inhibition at 50 µg/mL with Alternaria solani was 0%; with Botrytis cinerea, 0.9%; with Fusarium graminearum, 1.6%; in the assay with Rhizoctonia solani [1] it was 26.1%. The MIC is 64 µg/mL (≈ 116 µM) in the assay on Escherichia coli and above 128 µg/mL against Staphylococcus aureus.

Take `O=C(Nc1ccccc1-c1ccc(Cl)cc1)c1cccnc1Cl` [BOSCALID]: the inhibition at 50 µg/mL in the assay on Alternaria solani was found to be 49.5%; in the assay on Botrytis cinerea, 90.1%; with Fusarium graminearum it was 32%; with Rhizoctonia solani [1] it was 80.2%. Moreover, the EC50 in the assay on Rhizoctonia solani [3] is 1.57 µg/mL (≈ 4.57 µM).

On to `COc1ccccc1C[C@@]1(CNC(=O)c2ccccn2)CCC[C@]2(C)c3ccc(C(C)C)cc3CC[C@@H]12`, for which the inhibition at 50 µg/mL was 3% in the assay on Alternaria solani, 20.6% in the assay with Botrytis cinerea, 0% in the assay on Fusarium graminearum and 46.2% in the assay on Rhizoctonia solani [1]. Further, the MIC in the assay on Escherichia coli is 32 µg/mL (≈ 64.4 µM); in the assay with Staphylococcus aureus, above 128 µg/mL.

For the compound `CC(C)c1ccc2c(c1)CC[C@H]1[C@@](CNC(=O)c3ccccn3)(Cc3cccc(C(F)(F)F)c3)CCC[C@]21C`, the inhibition at 50 µg/mL was determined as 1% with Alternaria solani, 0% in the assay on Botrytis cinerea, 0% with Fusarium graminearum and 8.2% in the assay with Rhizoctonia solani [1]. Besides, the results for the MIC in the assay on Escherichia coli and with Staphylococcus aureus were 64 µg/mL (≈ 120 µM) and above 128 µg/mL, respectively.

On to `CC(C)c1ccc2c(c1)CC[C@H]1[C@@](CNC(=O)c3ccccn3)(Cc3ccccc3C#N)CCC[C@]21C`, for which the inhibition at 50 µg/mL turned out to be 0% in the assay with Alternaria solani, 23.2% in the assay on Botrytis cinerea, 0% in the assay with Fusarium graminearum and 29.3% with Rhizoctonia solani [1]. The values for the MIC in the assay on Escherichia coli and against Staphylococcus aureus were 64 µg/mL (≈ 130 µM) and above 128 µg/mL, respectively.

Regarding `CC(C)c1ccc2c(c1)CC[C@H]1[C@@](CN)(Cc3ccc(C(C)(C)C)cc3)CCC[C@]21C`, the inhibition at 50 µg/mL in the assay on Alternaria solani was 7.9%; with Botrytis cinerea it was 32.4%; in the assay with Fusarium graminearum, 3.6%; with Rhizoctonia solani [1], 65%. In addition, the values for the MIC in the assay on Escherichia coli and with Staphylococcus aureus were 16 µg/mL (≈ 38.3 µM) and above 128 µg/mL, respectively.

`CC(C)c1ccc2c(c1)CC[C@H]1[C@@](CNC(=O)c3ccccn3)(Cc3ccc(F)cc3)CCC[C@]21C`: the inhibition at 50 µg/mL turned out to be 1.7% in the assay on Alternaria solani, 0% in the assay on Botrytis cinerea, 0% in the assay with Fusarium graminearum and 1.2% with Rhizoctonia solani [1]. In addition, the MIC in the assay on Escherichia coli is 4 µg/mL (≈ 8.25 µM); against Staphylococcus aureus, 32 µg/mL (≈ 66 µM).

In the assay with Escherichia coli, `CN[C@H](CC(C)C)C(=O)N[C@H]1C(=O)N[C@@H](CC(N)=O)C(=O)N[C@H]2C(=O)N[C@H]3C(=O)N[C@H](C(=O)N[C@H](C(=O)O)c4cc(O)cc(O)c4-c4cc3ccc4O)[C@H](O)c3ccc(c(Cl)c3)Oc3cc2cc(c3O[C@@H]2O[C@H](CO)[C@@H](O)[C@H](O)[C@H]2O[C@H]2C[C@](C)(N)[C@H](O)[C@H](C)O2)Oc2ccc(cc2Cl)[C@H]1O` [VANCOMYCIN] came in with an MIC of 128 µg/mL (≈ 88.3 µM).

On to `OCC1=C[C@H](N[C@H]2C[C@H](CO)[C@@H](O[C@@H]3O[C@H](CO)[C@@H](O)[C@H](O)[C@H]3O)[C@H](O)[C@H]2O)[C@H](O)[C@@H](O)[C@@H]1O` [VALIDAMYCIN], for which the Activity in the assay with Rhizoctonia solani [4] is listed as 83.1%.

On to `CC(C)c1ccc2c(c1)CC[C@H]1[C@@](CN)(Cc3ccc(Cl)cc3)CCC[C@]21C`, for which the inhibition at 50 µg/mL is 20.2% in the assay on Alternaria solani, 47.3% in the assay with Botrytis cinerea, 25.9% in the assay on Fusarium graminearum and 80.6% in the assay on Rhizoctonia solani [1]. Besides, the MIC is 0.125 µg/mL (≈ 0.316 µM) in the assay on Escherichia coli and 8 µg/mL (≈ 20.2 µM) with Staphylococcus aureus. This compound had an EC50 with Rhizoctonia solani [3] of 7.86 µg/mL (≈ 19.9 µM). The INH in assay [2] was determined as 0.76 ng/mL.

In the case of `CC(C)c1ccc2c(c1)CC[C@H]1[C@@](CNC(=O)c3ccccn3)(Cc3ccc(C(C)(C)C)cc3)CCC[C@]21C`, the inhibition at 50 µg/mL in the assay on Alternaria solani turned out to be 31.6%; in the assay with Botrytis cinerea, 38.4%; in the assay on Fusarium graminearum, 22.1%; in the assay with Rhizoctonia solani [1], 65.4%. Also, the MIC in the assay on Escherichia coli was 8 µg/mL (≈ 15.3 µM); with Staphylococcus aureus it was above 128 µg/mL.

As for `CC(C)c1ccc2c(c1)CC[C@H]1[C@@](CNC(=O)c3ccccn3)(Cc3cccc(C#N)c3)CCC[C@]21C`, the inhibition at 50 µg/mL with Alternaria solani is 3%; in the assay on Botrytis cinerea, 6.3%; in the assay on Fusarium graminearum, 4.5%; in the assay with Rhizoctonia solani [1], 5.8%. Further, the MIC against Escherichia coli was 32 µg/mL (≈ 65.1 µM); with Staphylococcus aureus, above 128 µg/mL.

Take `CC(C)c1ccc2c(c1)CC[C@H]1[C@@](CNC(=O)c3ccccn3)(Cc3ccc(Cl)cc3)CCC[C@]21C`: the inhibition at 50 µg/mL in the assay on Alternaria solani turned out to be 35%; in the assay on Botrytis cinerea, 51.3%; in the assay on Fusarium graminearum it was 45.7%; in the assay on Rhizoctonia solani [1], 55.3%. Besides, the values for the MIC against Escherichia coli and with Staphylococcus aureus were 32 µg/mL (≈ 63.9 µM) and 8 µg/mL (≈ 16 µM), respectively.

Take `COc1ccc(C[C@@]2(CNC(=O)c3ccccn3)CCC[C@]3(C)c4ccc(C(C)C)cc4CC[C@@H]23)cc1`: the inhibition at 50 µg/mL was 4.9% in the assay on Alternaria solani, 22.2% with Botrytis cinerea, 4.5% in the assay with Fusarium graminearum and 48.6% with Rhizoctonia solani [1]. Besides, the figures for the MIC against Escherichia coli and against Staphylococcus aureus were 64 µg/mL (≈ 129 µM) and above 128 µg/mL, respectively.

As for `COc1ccccc1C[C@@]1(CN)CCC[C@]2(C)c3ccc(C(C)C)cc3CC[C@@H]12`, the inhibition at 50 µg/mL in the assay with Alternaria solani came out at 16.9%; with Botrytis cinerea it was 51.4%; in the assay on Fusarium graminearum, 24.8%; with Rhizoctonia solani [1] it was 44.5%. Besides, the figures for the MIC in the assay with Escherichia coli and in the assay with Staphylococcus aureus were 32 µg/mL (≈ 81.7 µM) and above 128 µg/mL, respectively.
